The values below come from paper PMC9197883, “Treatment with Polyethylene Glycol–Conjugated Fungal D-Amino Acid Oxidase Reduces Lung Inflammation in a Mouse Model of Chronic Granulomatous Disease” (Inflammation, 2022).

One test has as its system T1, fDAO / PEG-fDAO.
T1 construct: gene DAO; DAO from Fusarium spp. supplied by Ikeda Food Research; tetramer 165 kDa; PEG conjugate (five PEG chains, succinimide-PEG ME-020CS) 206 kDa
Briefly: HRP-coupled o-dianisidine assay of H2O2 formation, nonlinear fit. In kind it is biochemical. The settings on record: pH 6.5; 25 °C; enzyme form not stated beside the value, most likely PEG-conjugated (PEG-fDAO).

Test [1] deals with D-amino acid oxidase isolated from Fusarium spp. (Fusarium spp.) (UniProt P24552). The experiment in a line: not stated; fDAO in 'the physiological solution used for testing'; how the oligomeric state was found is not told.

As usually defined, the Km is the substrate concentration at which the rate is half of its maximum. Consider `N[C@H](Cc1ccccc1)C(=O)O` [D-phenylalanine], for which, in the test with fDAO / PEG-fDAO, the Michaelis constant (Km) amounted to 220 µM.

A word on the stoichiometry N: it is a count of units in the complex or per binding partner. The molecule “D-amino acid oxidase isolated from Fusarium spp. (from UniProt P24552 23-361) (enzyme)” returned a stoichiometry N in test [1] of 4.
